Patent US20090123389A1, “Methods for modulating Th17 cell development in the treatment and prevention of cellulite” (priority 2007, published 2009)

Key:
dermal fibroblasts = assay: Spreading and contractile activity of dermal fibroblasts on Type I collagen; format: cell-based, human
Experimental: Inhibitors of cellulite formation are also identified by observing the effect of the test compound on fibroblast behavior. In this assay, a control population of primary dermal fibroblasts are cultured in a matrix of Type I collagen, mimicking the interstitial matrix of the dermis and hypodermis, such that the fibroblasts attach to the substratum and spread, exerting contractile force on the surrounding interstitial matrix. In the test population, primary dermal fibroblasts are incubated on a matrix of Type I collagen in the presence of a test compound for a predetermined length of time, e.g., 24 hrs. The ability of the dermal fibroblasts to attach to the substratum and spread is then observed.
An assay is provided to test the effects of HF and other selective Th17 inhibitors on the behavior of cells likely to provide the basis for the structural features of cellulite—dermal fibroblasts and myofibroblasts. When human primary dermal fibroblasts are cultured in a matrix of Type I collagen, mimicking the interstitial matrix of the dermis and hypodermis, they attach to the substratum and spread, exerting contractile force on the surrounding interstitial matrix. […] The ability of the dermal fibroblasts to attach and spread when cultured in the presence of the Th17 inhibitor is detected.

mTOR = assay: Signaling downstream of mTOR in fibroblasts; format: cell-based
TGFβ signaling = TGFβ signaling in T and B cells (Smad phosphorylation, lymphocyte responses to TGFβ); format: cell-based, mouse; conditions: HF 10 nM (2.5-40 nM for Smad); SB-431542 10 μM
Experimental: DMSO, 10 nM HF, 10 nM MAZ1310 or 10 μM SB-431542 was added as indicated at the time of activation and intracellular cytokine staining was performed on expanded T cells on day 5 as in FIG. 14B
FIG. 15B is an illustration depicting the analysis of CD8^+ T cells that were activated in the presence or absence of TGFβ and cultured with DMSO, 10 nM HF, 10 nM MAZ1310 or 10 μM SB-431542. Expanded cells were restimulated on day 5 and intracellular staining was performed as above.
FIG. 15C is an illustration depicting the analysis of CFSE-labeled B cells that were activated by LPS stimulation in the presence or absence of TGFβ plus DMSO, 10 nM HF, 10 nM MAZ1310 or 10 μM SB-431542. Intracellular IL-6 production in B cells re-stimulated with PMA plus ionomycin, or cell-surface IgA expression was determined 4 days after activation by FACS analyses.
T cells were then activated in the presence or absence of 3 ng/ml TGFβ. Whole cell extracts were prepared after 1 hour of stimulation and western blot analyses were performed using the indicated antibodies.
Western blotting: Whole cell lysates were generated from T cells activated for the indicated times. For STAT3 and Smad2/3 western blots cells were harvested, washed in PBS and lysed in 50 mM Tris, pH 7.4, 0.1% SDS, 1% Triton-×100, 140 mM NaCl, 1 mM EDTA, 1 mM EGTA supplemented with protease inhibitors tablets (Roche—Germany), 1 mM NaF and 1 mM Na3VO4. […]

[1] = test system: T cell-mediated inflammation; conditions: oxazolone-induced; cited from earlier work
primary T cells = format: cell-based
Experimental: The non-specific cytoxicity of HF in both normal and transformed T-cells at high doses was evaluated. Anti-CD3/anti-CD28 activated primary T cells were harvested 6 days after activation and cultured in the presence of IL-2 with or without HF (100 nM). As a positive control, some T cells were cultured without IL-2 to induce apoptosis (FIG. 3A). Jurkat T cells, a transformed T cell leukemia line, were cultured in complete medium with or without HF (100 nM) as indicated (FIG. 3B). Both primary and Jurkat T cells were cultured for 30 hours and programmed cell death, i.e. apoptosis, was determined by Annexin V staining and propidium iodide (PI) uptake and cells were analyzed by flow cytometry. The percent of apoptotic T cells at each time point was plotted and was defined as Annexin V^+ PI^−. […] In further experiments, titrating amounts of HF were added to primary T cells and apoptosis was determine as above at the indicated time points. At 100 nM HF, but not 30 nM or lower, generalized T-cell apoptosis was observed (FIG. 3C).

fibrosis = conditions: in vitro; cited from earlier work

SMILES: O=C(CC1NCCCC1O)Cn1cnc2cc(Br)c(Cl)cc2c1=O (racemic) [HF, 7-bromo-6-chloro-3-[3-(3-hydroxy-2-piperidinyl)-2-oxopropyl]-4(3H)-quinazolinone]
- spreading and contractile activity of dermal fibroblasts (dermal fibroblasts): prevents the spreading and contractile activity
- signaling downstream of mTOR in fibroblasts (mTOR): did not inhibit
- TGFβ-induced Smad phosphorylation and other lymphocyte responses to TGFβ (TGFβ signaling): inhibited neither
- T cell-mediated inflammation (delayed-type hypersensitivity) [1]: inhibits this T cell-mediated inflammation
- HF concentration at which generalized T-cell apoptosis was not observed (primary T cells): ≤ 30 nM
- HF concentration at which generalized T-cell apoptosis was observed (primary T cells): 100 nM
- concentrations at which HF acts as an inhibitor of fibrosis (fibrosis): 1 to 200 nM
